Results published in ChEMBL document CHEMBL1201862, “PubChem BioAssay data set” (2004).
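Each compound was tested at five concentrations against cells in 96-well plates for 48 hours. GI50 = concentration required for 50% inhibition of growth.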 Active and inactive are the calls of the source. Rule as the data show it: active = GI50 up to about 1.1 µM and inactive = higher.

Tests used:
Assay in all cases: NCI-60 cell line screen, 48 h
[1] = tested on: SW-620
[2] = tested on: SF-268
[3] = tested on: MCF7
[4] = tested on: NCI/ADR-RES
[5] = tested on: OVCAR-8
[6] = tested on: UO-31
[7] = tested on: HOP-92
[8] = tested on: HT-29
[9] = tested on: NCI-H226
[10] = tested on: DU-145
[11] = tested on: NCI-H522
[12] = tested on: M14
[13] = tested on: SR
[14] = tested on: SN12C
[15] = tested on: SF-539
[16] = tested on: U-251
[17] = tested on: 786-0
[18] = tested on: PC-3
[19] = tested on: HOP-62
[20] = tested on: K562

SMILES | GI50 [1] | GI50 [2] | GI50 [3] | GI50 [4] | GI50 [5] | GI50 [6] | GI50 [7] | GI50 [8] | GI50 [9] | GI50 [10] | GI50 [11] | GI50 [12] | GI50 [13] | GI50 [14] | GI50 [15] | GI50 [16] | GI50 [17] | GI50 [18] | GI50 [19] | GI50 [20]
O=C(c1ccccc1)c1ccc2c(c1)nc1n2C(c2c(Cl)cccc2Cl)SC1 (stereo not drawn) | > 100 µM (inactive) | 67.5 µM (inactive) | 39.4 µM (inactive) | 40.3 µM (inactive) | 63.7 µM (inactive) | 23.9 µM (inactive) | 69 µM (inactive) | 56.1 µM (inactive) | > 100 µM (inactive) | > 100 µM (inactive) | 55.8 µM (inactive) | 48.2 µM (inactive) | 34 µM (inactive) | > 100 µM (inactive) | > 100 µM (inactive) | 69.5 µM (inactive) | 72.6 µM (inactive) | 38.1 µM (inactive) | > 100 µM (inactive) | 
Cc1c(C)c2c(c(N)c1C#N)C(=O)N(CCN1CCNCC1)C2=O | 31.6 µM (inactive) | 34.1 µM (inactive) | 34.8 µM (inactive) | 33.4 µM (inactive) | 30.8 µM (inactive) | 28.6 µM (inactive) | 25.2 µM (inactive) |  | 29.1 µM (inactive) | 29.4 µM (inactive) | 17.9 µM (inactive) | 33.8 µM (inactive) | 25.6 µM (inactive) | 32.5 µM (inactive) | 32.8 µM (inactive) | 43.7 µM (inactive) | 25.4 µM (inactive) | 18.4 µM (inactive) |  | 51.6 µM (inactive)
Cc1ccc([N+](=O)[O-])cc1S(=O)(=O)Nc1ccc(C2=NNC(c3ccccc3)C2)cc1 (stereo not drawn) | 25.4 µM (inactive) | 16.8 µM (inactive) | 14.9 µM (inactive) | 21.1 µM (inactive) | 26.2 µM (inactive) | 24.9 µM (inactive) | 33.3 µM (inactive) | 27.4 µM (inactive) | 32.9 µM (inactive) | 27.9 µM (inactive) | 13.8 µM (inactive) | 21.4 µM (inactive) | 15.1 µM (inactive) | 19.5 µM (inactive) | 28.1 µM (inactive) |  | 20.8 µM (inactive) | 16.7 µM (inactive) | 11.5 µM (inactive) | 6.73 µM (inactive)
Cc1nc(Cc2n[nH]c(C)n2)n[nH]1 | > 100 µM (inactive) | > 100 µM (inactive) | > 100 µM (inactive) | > 100 µM (inactive) | > 100 µM (inactive) | > 100 µM (inactive) | > 100 µM (inactive) | > 100 µM (inactive) |  | > 100 µM (inactive) | > 100 µM (inactive) | > 100 µM (inactive) | > 100 µM (inactive) | > 100 µM (inactive) | > 100 µM (inactive) | > 100 µM (inactive) | > 100 µM (inactive) | > 100 µM (inactive) | > 100 µM (inactive) | > 100 µM (inactive)
Clc1ccc(C(OCn2ccnc2)c2nc3ccccc3[nH]2)c(Cl)c1 (stereo not drawn) | 26.9 µM (inactive) | 61.8 µM (inactive) | 38.2 µM (inactive) | 56.2 µM (inactive) | 52.8 µM (inactive) | 23.7 µM (inactive) | 0.312 µM (active) | 53.3 µM (inactive) |  | 64.4 µM (inactive) | 43.1 µM (inactive) | 54.2 µM (inactive) | > 10 µM (inactive) | 61.4 µM (inactive) | 35.8 µM (inactive) | 31.4 µM (inactive) | 39 µM (inactive) | 35.2 µM (inactive) | 92.9 µM (inactive) | 45.7 µM (inactive)
CC1C=C(NCC2(CO)CCC2)N=C(N)N1 (stereo not drawn) | > 100 µM (inactive) | > 100 µM (inactive) | > 100 µM (inactive) | > 100 µM (inactive) | > 100 µM (inactive) | > 100 µM (inactive) | > 100 µM (inactive) | > 100 µM (inactive) | > 100 µM (inactive) | > 100 µM (inactive) | > 100 µM (inactive) | > 100 µM (inactive) | > 100 µM (inactive) | > 100 µM (inactive) |  | > 100 µM (inactive) | > 100 µM (inactive) | > 100 µM (inactive) | > 100 µM (inactive) | > 100 µM (inactive)
O=c1[nH]cc(F)c(=O)[nH]1 [FLUOROURACIL] | 27.7 µM (inactive) | 51.4 µM (inactive) | 1.75 µM (inactive) | 41.3 µM (inactive) | 20.2 µM (inactive) | 5.64 µM (inactive) | 162 µM (inactive) |  | 250 µM (inactive) | 9.29 µM (inactive) | 37 µM (inactive) | 46.5 µM (inactive) | 4.36 µM (inactive) | 24.9 µM (inactive) | 1.33 µM (inactive) | 44.3 µM (inactive) | 11.9 µM (inactive) | 50.6 µM (inactive) | 21.8 µM (inactive) | 21.2 µM (inactive)
CC(=O)OCC1OC(OCC2OC(N3C(=S)N[C@H]([C@@H](O)[C@H](O)[C@H](O)CO)[C@H]3O)C(OC(C)=O)C(OC(C)=O)C2OC(C)=O)C(OC(C)=O)C(OC(C)=O)C1OC(C)=O (stereo partly drawn) | > 100 µM (inactive) | > 100 µM (inactive) | > 100 µM (inactive) | > 100 µM (inactive) | 43.9 µM (inactive) | > 100 µM (inactive) | 33.5 µM (inactive) | 65.6 µM (inactive) |  | > 100 µM (inactive) | 83.8 µM (inactive) | > 100 µM (inactive) | > 100 µM (inactive) | > 100 µM (inactive) | > 100 µM (inactive) | > 100 µM (inactive) | > 100 µM (inactive) | > 100 µM (inactive) | > 100 µM (inactive) | 28.6 µM (inactive)
Cc1n[nH]c(=O)n1/N=C/c1ccc([N+](=O)[O-])cc1 | > 100 µM (inactive) | 70.6 µM (inactive) | > 100 µM (inactive) | > 100 µM (inactive) | > 100 µM (inactive) | > 100 µM (inactive) | 55.3 µM (inactive) | > 100 µM (inactive) | > 100 µM (inactive) | > 100 µM (inactive) | > 100 µM (inactive) |  | > 100 µM (inactive) | > 100 µM (inactive) | > 100 µM (inactive) | > 100 µM (inactive) | > 100 µM (inactive) | > 100 µM (inactive) | > 100 µM (inactive) | > 100 µM (inactive)
CSc1cc(Cl)c(C(=O)Nc2ccccc2)cc1S(=O)(=O)n1ccnc1O | > 100 µM (inactive) | > 100 µM (inactive) | > 100 µM (inactive) | > 100 µM (inactive) | > 100 µM (inactive) | > 100 µM (inactive) | > 100 µM (inactive) | > 100 µM (inactive) |  | > 100 µM (inactive) | > 100 µM (inactive) | > 100 µM (inactive) | > 100 µM (inactive) | > 100 µM (inactive) | > 100 µM (inactive) | > 100 µM (inactive) | > 100 µM (inactive) | > 100 µM (inactive) | > 100 µM (inactive) | > 100 µM (inactive)
Cc1cc(C)c2c(SCc3ccc(Cl)cc3Cl)nc(N)nc2n1 | > 100 µM (inactive) | > 100 µM (inactive) | 31.6 µM (inactive) | > 100 µM (inactive) | 28.9 µM (inactive) | 23.5 µM (inactive) | 15.9 µM (inactive) | > 100 µM (inactive) | > 100 µM (inactive) | > 100 µM (inactive) | 15.5 µM (inactive) | 82.6 µM (inactive) | 33 µM (inactive) | 21.2 µM (inactive) |  | 36.5 µM (inactive) | 17.1 µM (inactive) | 35.6 µM (inactive) | 37.4 µM (inactive) | 22.7 µM (inactive)
